Among the data in patent US6352988B2, “Indane or dihydroindole derivatives” (H. Lundbeck A/S, priority 1996, dated 2002) are IC50 and inhibition values, retold here.

The test addresses T1, dopamine D4 receptors in cloned human dopamine receptor subtype 4.2 membranes (Homo sapiens, UniProt P21917, DEL271-302).
T1 sequence (P21917 with tags, fused parts or gaps DEL271-302): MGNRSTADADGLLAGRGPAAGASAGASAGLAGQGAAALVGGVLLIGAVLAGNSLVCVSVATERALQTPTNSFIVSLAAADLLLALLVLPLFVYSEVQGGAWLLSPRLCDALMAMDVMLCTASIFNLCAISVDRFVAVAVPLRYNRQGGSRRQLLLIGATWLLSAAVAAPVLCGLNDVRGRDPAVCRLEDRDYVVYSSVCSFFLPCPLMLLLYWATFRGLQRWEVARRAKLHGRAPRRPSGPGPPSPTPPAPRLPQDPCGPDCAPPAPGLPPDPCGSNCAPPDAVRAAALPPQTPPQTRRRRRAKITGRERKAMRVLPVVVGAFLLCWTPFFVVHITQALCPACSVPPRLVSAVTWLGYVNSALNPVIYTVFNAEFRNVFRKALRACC
The experiment in a line: 3H-YM-09151-2 binding (affinity for dopamine D4 receptors). Particulars: 3H-YM-09151-2, cloned human D4.2 membranes; for IC50: * means that the test result is preliminary, read-out: D4-bind. IC50. The protocol: By this method the inhibition by drugs of the binding of the dopamine D4 antagonist ^3H-YM-09151-2 to dopamine D4 receptors in cloned human dopamine receptor subtype 4.2 membranes is determined in vitro. Accordingly, this is a test for affinity for dopamine D4 receptors. The test is performed using a preparation of cloned dopamine D4 cell membranes CRM-016®, Dupharma A/S, Denmark, in accordance with the product specifications.

`CC(=O)N1CC(CCN2CC=C(c3c[nH]c4cc(Cl)ccc34)CC2)c2ccccc21` (single isomer, unassigned; (+)) [Compound 34a]: the IC50 (in general, the concentration that inhibits the measured activity by half) was 4 nM.
`C1=C(c2c[nH]c3ccccc23)CCN(CC2CCc3ccccc32)C1` (stereo not drawn) [Compound 5a, 3-[1-(1-Indanylmethyl)-1,2,3,6-tetrahydropyridin-4-yl]-1H-indole]: the IC50 came to 3.5 nM.
Turning to `c1ccc2c(c1)CCC2CN1CCC(c2c[nH]c3ccccc23)CC1` (stereo not drawn) [Compound 5b, 3-[1-(1-Indanylmethyl)piperindin-4-yl]-1H-indole], the IC50 was found to be 5 nM.
The same measure, in the same setting: in the case of `COc1cccc2c1C(CN1CC=C(c3c[nH]c4cc(Cl)ccc34)CC1)CC2` (stereo not drawn) [Compound 5c, 6-Chloro-3-[1-(7-methoxyindan-1-yl)methyl-1,2,3,6-tetrahydropyridin-4-yl]-1H-indole] it was 32 nM.
On the same count and under the same terms, in the case of `COc1ccc2c(c1)C(CN1CC=C(c3c[nH]c4ccccc34)CC1)CC2` (stereo not drawn) [Compound 5d, 3-[1-(6-methoxyindan-1-yl)methyl-1,2,3,6-tetrahydropyridin-4-yl]-1H-indole] it was 20 nM.
Still for that read-out and setting: the result for `N#Cc1ccc2c(c1)C(CN1CC=C(c3c[nH]c4cc(Cl)ccc34)CC1)CC2` (stereo not drawn) [Compound 6a, 6-Chloro-3-[1-(6-cyano-1-indanylmethyl)-1,2,3,6-tetrahydropyridin-4-yl]-1H-indole] reads 6.8 nM; that for `N#Cc1ccc2c(c1)C(CN1CCC(c3c[nH]c4cc(Cl)ccc34)CC1)CC2` (stereo not drawn) [Compound 6b, 6-Chloro-3-[1-(6-cyano-1-indanylmethyl)piperidin-4-yl]-1H-indole], 3.3 nM.
Turning to `CC(=O)Nc1ccc2c(c1)CCC2CN1CC=C(c2c[nH]c3cc(Cl)ccc23)CC1` (stereo not drawn) [Compound 6d, 6-Chloro-3-[1-(5-acetylamino-1-indanylmethyl)-1,2,3,6-tetrahydropyridin-4-yl]-1H-indole], the IC50 was 30 nM.
As to `Clc1ccc2c(C3=CCN(CC4CCc5ccc(Br)cc54)CC3)c[nH]c2c1` (stereo not drawn) [Compound 6e, 6-Chloro-3-[1-(6-bromo-1-indanylmethyl)-1,2,3,6-tetrahydropyridin-4-yl]-1H-indole], the IC50 was 84 nM.
In the case of `Fc1ccc2[nH]cc(C3CCN(CCC4CCc5ccccc54)CC3)c2c1` (stereo not drawn) [Compound 8c, 5-fluoro-3-[1-[2-(indan-1-yl)ethyl]-piperidin-4-yl]-1H-indole], the IC50 worked out at 2.3 nM.
Consider `Fc1ccc2[nH]cc(C3CCN(CCCCC4CCc5ccccc54)CC3)c2c1` (stereo not drawn) [Compound 8e, 5-fluoro-3-[1-[4-(indan-1-yl)butan-1-yl]-piperidin-4-yl]-1H-indole], for which the IC50 is 8.3 nM.
On to `Clc1ccc2c(C3CCN(CCCCC4CCc5ccccc54)CC3)c[nH]c2c1` (stereo not drawn) [Compound 8f, 6-Chloro-3-[1-[4-(indan-1-yl)butan-1-yl)-piperidin-4-yl]-1H-indole], for which the IC50 was determined as 12 nM.
On the same count and under the same terms, in the case of `Clc1ccc2c(C3=CCN(CCCC4CCc5ccccc54)CC3)c[nH]c2c1` (stereo not drawn) [Compound 8g, 6-Chloro-3-[1-[3-(indan-1-yl)propan-1-yl]-1,2,3,6-tetrahydropyridin-4-yl]-1H-indole] it was 14 nM; in that of `Clc1ccc2c(C3=CCN(CCCCC4CCc5ccccc54)CC3)c[nH]c2c1` (stereo not drawn) [Compound 8h], 34 nM; in that of `Clc1ccc2c(C3=CCN(CC4Cc5ccccc5C4)CC3)c[nH]c2c1` [Compound 11a, 6-Chloro-3-[1-(indan-2-yl)methyl-1,2,3,6-tetrahydropyridin-4-yl]-1H-indole], 2.8 nM.
With `Clc1cccc2c(C3=CCN(CC4Cc5ccccc5C4)CC3)c[nH]c12` [Compound 11c, 7-Chloro-3-[1-(indan-2-yl)methyl-1,2,3,6-tetrahydropyridin-4-yl]-1H-indole], the IC50 was found to be 3.8 nM.
Turning to `c1ccc2c(c1)CC(CN1CCN(c3ccc4[nH]ccc4c3)CC1)C2` [Compound 11f, 5-[4-(Indan-2-yl)methylpiperazin-1-yl]-1H-indole], the IC50 was found to be 1.6 nM.
Same read-out and setting: the result for `Clc1ccc2c(C3=CCN(CC4CCc5ccc6[nH]ccc6c54)CC3)c[nH]c2c1` (stereo not drawn) [Compound 16a, 8-[4-(6-Chloro-1H-indol-3-yl)-1,2,3,6-tetrahydropyridin-1-ylmethyl]-3,6,7,8-tetrahydro-cyclopent[e]indole] reads 6.2 nM.
Same read-out and setting: the result for `CC(=O)Nc1cccc2c1CC(CN1CC=C(c3c[nH]c4cc(Cl)ccc34)CC1)C2` (stereo not drawn) [Compound 18a, 6-Chloro-3-[1-(4-acetylaminoindan-2-yl)methyl-1,2,3,6-tetrahydropyridine-4-yl]-1H-indole] reads 7.5 nM; that for `CC(=O)Nc1cccc2c1CC(CN1CCC(c3c[nH]c4cc(Cl)ccc34)CC1)C2` (stereo not drawn) [Compound 18b, 6-Chloro-3-[1-(4-acetylaminoindan-2-yl)methylpiperidin-4-yl]-1H-indole], 4.3 nM; that for `CC(=O)Nc1ccc2c(c1)C(CCN1CC=C(c3c[nH]c4cc(Cl)ccc34)CC1)CC2` (stereo not drawn) [Compound 18c], 41 nM.
Regarding `CC(=O)Nc1ccc2c(c1)C(CCCN1CC=C(c3c[nH]c4cc(Cl)ccc34)CC1)CC2` (stereo not drawn) [Compound 18d, 6-Chloro-3-[1-[3-(6-acetylaminoindan-1-yl)propan-1-yl]-1,2,3,6-tetrahydropyridin-4-yl]-1H-indole], the IC50 came to 7.3 nM.
As to `CC(=O)Nc1ccc2c(c1)C(CCCCN1CC=C(c3c[nH]c4cc(Cl)ccc34)CC1)CC2` (stereo not drawn) [Compound 18e, 6-Chloro-3-[1-[4-(6-acetylaminoindan-1-yl)butan-1-yl]-1,2,3,6-tetrahydropyridin-4-yl]-1H-indole], the IC50 is 66 nM.
Same read-out and setting: the result for `CC(=O)N1CC(CCN2CC=C(c3c[nH]c4cc(Cl)ccc34)CC2)c2ccccc21` (stereo not drawn) [Compound 20a, 3-[1-[2-(1-Acetyl-2,3-dihydro-1H-indol-3-yl)ethyl]-1,2,3,6-tetrahydropyridin-4-yl]-6-chloro-1H-indole] reads 3.1 nM; that for `CC(=O)N1CC(CCN2CCC(c3c[nH]c4cc(Cl)ccc34)CC2)c2ccccc21` (stereo not drawn) [Compound 20b, 3-[1-[2-(1-Acetyl-2,3-dihydro-1H-indol-3-yl)ethyl]piperidin-4-yl]-6-chloro-1H-indole], 6.7 nM.
Turning to `O=CN1CC(CCN2CC=C(c3c[nH]c4cc(Cl)ccc34)CC2)c2ccccc21` (stereo not drawn) [Compound 20c, 6-Chloro-3-[1-[2-(1-formyl-2,3-dihydro-1H-indol-3-yl)ethyl]-1,2,3,6-tetrahydropyridin-4yl]-1H-indole], the IC50 stood at 2.4 nM.
On to `O=CN1CC(CCN2CCC(c3c[nH]c4cc(Cl)ccc34)CC2)c2ccccc21` (stereo not drawn) [Compound 20d, 6-Chloro-3-[1-[2-(1-formyl-2,3-dihydro-1H-indol-3-yl)ethyl]piperidin-4-yl]-1H-indole], for which the IC50 worked out at 3 nM.
For the molecule `CC(=O)N1CC(CCN2CC=C(c3c[nH]c4cc(Cl)ccc34)CC2)c2cc(Br)ccc21` (stereo not drawn) [Compound 20e, 3-[1-[2-(1-Acetyl-5-bromo-2,3-dihydro-1H-indol-3-yl)ethyl]-1,2,3,6-tetrahydropyridin-4yl]-6-chloro-1H-indole], under “at 50 nM, read-out: D4-bind. % inhibition of binding at 50 nM”, the inhibition (as a rule, the change of the read-out against control, counted positive when it falls) at 0.05 µM came out at 21%.
With `CC(=O)N1CC(CCN2CC=C(c3c[nH]c4c(Cl)cccc34)CC2)c2ccccc21` (stereo not drawn) [Compound 20f, 3-[1-[2-(1-Acetyl-2,3-dihydro-1H-indol-3-yl)ethyl]-1,2,3,6-tetrahydropyridin-4-yl]-7-chloro-1H-indole], the IC50 amounted to 3.2 nM.
Same read-out and setting: the result for `CC(=O)N1CC(CCN2CC=C(c3c[nH]c4c(Cl)c(Cl)ccc34)CC2)c2ccccc21` (stereo not drawn) [Compound 20g, 3-[1-[2-(1-Acetyl-2,3-dihydro-1H-indol-3-yl)ethyl]-1,2,3,6-tetrahydropyridin-4-yl]-6,7-dichloro-1H-indole] reads 16 nM; that for `CC(=O)N1CC(CCN2CC=C(c3c[nH]c4cc5c(cc34)OCO5)CC2)c2ccccc21` (stereo not drawn) [Compound 20h, 3-[1-[2-(1-Acetyl-2,3-dihydro-1H-indol-3-yl)ethyl]-1,2,3,6-tetrahydropyridin-4-yl]-5,6-methylenedioxy-1H-indole], 30 nM.
On the same count and under the same terms, the result for `CC(C)(C)OC(=O)N1CC(CCN2CC=C(c3c[nH]c4cc(Cl)ccc34)CC2)c2ccccc21` (stereo not drawn) [Compound 20i, 3-[1-[2-(1-tert-Butoxycarbonyl-2,3-dihydro-1H-indol-3-yl)ethyl]-1,2,3,6-tetrahydropyridin-4-yl]-6-chloro-1H-indole] reads 2.9 nM.
On the same count and under the same terms, the result for `CC(=O)N1CC(CCN2CCN(c3ccc4[nH]ccc4c3)CC2)c2ccccc21` (stereo not drawn) [Compound 20j, 5-[4-[2-(1-Acetyl-2,3-dihydro-1H-indol-3-yl)ethyl]piperazin-1-yl]-1H-indole] reads 6.9 nM; that for `CC(=O)N1CC(CCCN2CC=C(c3c[nH]c4cc(Cl)ccc34)CC2)c2ccccc21` (stereo not drawn) [Compound 20k, 3-[1-[3-(1-Acetyl-2,3-dihydro-1H-indol-3-yl)propyl]-1,2,3,6-tetrahydropyridin-4-yl]-6-chloro-1H-indole], 10 nM; that for `CC(=O)N1CC(CCN2CC=C(c3c[nH]c4cc(Cl)ccc34)CC2)c2cc(C)ccc21` (stereo not drawn) [Compound 20m, 3-[1-[2-(1-Acetyl-5-methyl-2,3-dihydro-1H-indol-3-yl)ethyl]-1,2,3,6-tetrahydropyridin-4-yl]-6-chloro-1H-indole], 8.4 nM.
For `Clc1ccc2c(C3CCN(CC4Cc5ccccc5C4)CC3)c[nH]c2c1` [Compound 21a, 6-Chloro-3-[1-(indan-2-ylmethyl)piperidin-4yl]-1H-indole], the IC50 came to 0.48 nM.
